Assay results: ChEMBL document CHEMBL1201862, “PubChem BioAssay data set” (2004)
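Assay format: 96-well plates, 48-hour exposure. GI50 marks 50% less growth.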 Activity calls are given as the source filed them. Cut-off read from the data, not from the text of the source: active = GI50 up to about 1.1 µM and inactive = higher. Square brackets hold non-standard residues; d marks the D form. Peptide text beside a SMILES is read from it. * marks the point of attachment. ξ: configuration not given here. ξD = NC(CC(=O)O)C(=O)O; Ac3c = NC1(C(=O)O)CC1; Boc = CC(C)(C)OC(=O)*; OtBu = CC(C)(C)O*

Assays:
Assay in all cases: NCI tumour cell line growth inhibition, 48 h
MOLT-4 = test system: MOLT-4
UACC-257 = test system: UACC-257
NCI-H23 = test system: NCI-H23
NCI-H226 = test system: NCI-H226
A549 = test system: A549
HOP-62 = test system: HOP-62
Malme-3M = test system: Malme-3M
SK-MEL-5 = test system: SK-MEL-5
PC-3 = test system: PC-3
CCRF-CEM = test system: CCRF-CEM
RXF 393 = test system: RXF 393
HCC 2998 = test system: HCC 2998
T47D = test system: T47D
M14 = test system: M14
OVCAR-3 = test system: OVCAR-3
LOX IMVI = test system: LOX IMVI
SNB-75 = test system: SNB-75
SF-539 = test system: SF-539
786-0 = test system: 786-0
EKVX = test system: EKVX

## COP(=O)(C(/C=C/c1ccccc1)OC(C)=O)[C@@H]1CCCC[C@H]1N(CC(C)(C)C)C(C)=O (stereo not given in full)
MOLT-4
  GI50: 7.93 µM (inactive)
UACC-257
  GI50: 14.3 µM (inactive)
NCI-H23
  GI50: 15.8 µM (inactive)
NCI-H226
  GI50: 12 µM (inactive)
A549
  GI50: 16.8 µM (inactive)
HOP-62
  GI50: 18.2 µM (inactive)
Malme-3M
  GI50: 18.2 µM (inactive)
SK-MEL-5
  GI50: 14 µM (inactive)
PC-3
  GI50: 14 µM (inactive)
CCRF-CEM
  GI50: 14.5 µM (inactive)
RXF 393
  GI50: 7.29 µM (inactive)
HCC 2998
  GI50: 12.6 µM (inactive)
T47D
  GI50: 5.87 µM (inactive)
M14
  GI50: 14.4 µM (inactive)
OVCAR-3
  GI50: 14.5 µM (inactive)
LOX IMVI
  GI50: 15.8 µM (inactive)
SNB-75
  GI50: 3.94 µM (inactive)
SF-539
  GI50: 17.9 µM (inactive)
786-0
  GI50: 17.3 µM (inactive)
EKVX
  GI50: 20.7 µM (inactive)

## COC1(C)CP(=O)(OC(C)C)CC(C)=C1Cl (stereo not given)
MOLT-4
  GI50: 22.2 µM (inactive)
UACC-257
  GI50: 16.9 µM (inactive)
NCI-H23
  GI50: 10.7 µM (inactive)
NCI-H226
  GI50: 12.5 µM (inactive)
A549
  GI50: 17.1 µM (inactive)
HOP-62
  GI50: 17.9 µM (inactive)
Malme-3M
  GI50: 17.3 µM (inactive)
SK-MEL-5
  GI50: 12.4 µM (inactive)
PC-3
  GI50: 25.5 µM (inactive)
CCRF-CEM
  GI50: 3.66 µM (inactive)
RXF 393
  GI50: 21.4 µM (inactive)
HCC 2998
  GI50: 27 µM (inactive)
T47D
  GI50: 13.6 µM (inactive)
M14
  GI50: 13.7 µM (inactive)
OVCAR-3
  GI50: 10.7 µM (inactive)
LOX IMVI
  GI50: 11.7 µM (inactive)
SNB-75
  GI50: 46.9 µM (inactive)
SF-539
  GI50: 10.7 µM (inactive)
786-0
  GI50: 19 µM (inactive)
EKVX
  GI50: 14.6 µM (inactive)

## COc1cc2c(cc1OCc1ccccc1)NC(=S)[C@@H]1CCCN1C2=S
MOLT-4
  GI50: > 100 µM (inactive)
UACC-257
  GI50: > 100 µM (inactive)
NCI-H23
  GI50: > 100 µM (inactive)
NCI-H226
  GI50: 93.5 µM (inactive)
A549
  GI50: 73.8 µM (inactive)
HOP-62
  GI50: 5.85 µM (inactive)
Malme-3M
  GI50: 71.6 µM (inactive)
SK-MEL-5
  GI50: 62.8 µM (inactive)
PC-3
  GI50: > 100 µM (inactive)
CCRF-CEM
  GI50: > 100 µM (inactive)
RXF 393
  GI50: > 100 µM (inactive)
HCC 2998
  GI50: > 100 µM (inactive)
T47D
  GI50: 82.4 µM (inactive)
M14
  GI50: > 100 µM (inactive)
OVCAR-3
  GI50: 43.1 µM (inactive)
LOX IMVI
  GI50: 55.5 µM (inactive)
SNB-75
  GI50: 15 µM (inactive)
SF-539
  GI50: 17.4 µM (inactive)
786-0
  GI50: 88.1 µM (inactive)
EKVX
  GI50: > 100 µM (inactive)

## Cc1ccc(S(=O)(=O)n2cncc2CO)cc1
MOLT-4
  GI50: > 100 µM (inactive)
UACC-257
  GI50: > 100 µM (inactive)
NCI-H23
  GI50: > 100 µM (inactive)
NCI-H226
  GI50: > 100 µM (inactive)
A549
  GI50: > 100 µM (inactive)
HOP-62
  GI50: > 100 µM (inactive)
Malme-3M
  GI50: > 100 µM (inactive)
SK-MEL-5
  GI50: > 100 µM (inactive)
PC-3
  GI50: > 100 µM (inactive)
CCRF-CEM
  GI50: > 100 µM (inactive)
RXF 393
  GI50: > 100 µM (inactive)
HCC 2998
  GI50: > 100 µM (inactive)
T47D
  GI50: > 100 µM (inactive)
M14
  GI50: > 100 µM (inactive)
OVCAR-3
  GI50: > 100 µM (inactive)
LOX IMVI
  GI50: > 100 µM (inactive)
SNB-75
  GI50: > 100 µM (inactive)
SF-539
  GI50: > 100 µM (inactive)
786-0
  GI50: > 100 µM (inactive)
EKVX
  GI50: > 100 µM (inactive)

## CCC(C)C1NC(=O)C(NC(=O)C(CC(C)C)N(C)C(=O)[C@@H]2C=CCN2C(=O)[C@H](C)O)C(C)OC(=O)[C@H](Cc2ccc(OC)cc2)N(C)C(=O)[C@@H]2CCCN2C(=O)[C@H](CC(C)C)NC(=O)C(C)C(=O)[C@H](C(C)C)OC(=O)CC1O (stereo not given in full)
MOLT-4
  GI50: 0.00147 µM (active)
UACC-257
  GI50: 0.00311 µM (active)
NCI-H23
  GI50: 0.00184 µM (active)
NCI-H226
  GI50: < 0.01 µM (active)
A549
  GI50: 0.004 µM (active)
HOP-62
  GI50: 0.00303 µM (active)
Malme-3M
  GI50: 0.00219 µM (active)
SK-MEL-5
  GI50: 0.000914 µM (active)
PC-3
  GI50: 0.00291 µM (active)
CCRF-CEM
  GI50: 0.00164 µM (active)
RXF 393
  GI50: < 0.01 µM (active)
HCC 2998
  GI50: 0.00306 µM (active)
T47D
  GI50: 0.0013 µM (active)
M14
  GI50: 0.00188 µM (active)
OVCAR-3
  GI50: 0.00393 µM (active)
LOX IMVI
  GI50: 0.00242 µM (active)
SNB-75
  GI50: 0.00198 µM (active)
SF-539
  GI50: 0.00139 µM (active)
786-0
  GI50: 0.00185 µM (active)
EKVX
  GI50: < 0.01 µM (active)

## COC(=O)C1(NC(=O)C(CC(=O)OC(C)(C)C)NC(=O)OC(C)(C)C)CC1 (stereo not given) (Boc-[ξD](OtBu)-[Ac3c]-OMe)
MOLT-4
  GI50: > 100 µM (inactive)
UACC-257
  GI50: > 100 µM (inactive)
NCI-H23
  GI50: > 100 µM (inactive)
NCI-H226
  GI50: > 100 µM (inactive)
A549
  GI50: > 100 µM (inactive)
HOP-62
  GI50: > 100 µM (inactive)
Malme-3M
  GI50: > 100 µM (inactive)
SK-MEL-5
  GI50: > 100 µM (inactive)
PC-3
  GI50: > 100 µM (inactive)
CCRF-CEM
  GI50: > 100 µM (inactive)
RXF 393
  GI50: > 100 µM (inactive)
HCC 2998
  GI50: > 100 µM (inactive)
T47D
  GI50: > 100 µM (inactive)
M14
  GI50: > 100 µM (inactive)
OVCAR-3
  GI50: > 100 µM (inactive)
LOX IMVI
  GI50: > 100 µM (inactive)
SNB-75
  GI50: > 100 µM (inactive)
SF-539
  GI50: > 100 µM (inactive)
786-0
  GI50: > 100 µM (inactive)
EKVX
  GI50: > 100 µM (inactive)
